Entries after “also recorded” stand apart in the source; their conditions may differ.

In series [1] the test system is platelets (platelet cyclooxygenase acylation). Nature of the series: Platelet washing study (ADGS). The format is cell-based, human. To be noted: platelet-rich plasma pretreated with drug at 37° C.; 200 μM arachidonic acid; before/after two-fold washing. The text has this: It is generally accepted that aspirin inhibits platelet cyclooxygenase through an irreversible acetylation process. In separate experiments, the platelet acylation by these O-acyl salicylates was investigated. It is hypothesised that if the acylation were reversible, then the O-acyl moieties might be removed by platelet washing. Consequently, the washed platelets would become susceptible to aggregation by arachidonic acid.
A platelet-washing technique, ADGS (albumin density gradient separation) similar to one used by Spriggs and Alexander (Spriggs, 1960, Nature 188 863), was employed for this purpose. The principle underlying ADGS is simply that of centrifuging platelets into a continuous density gradient produced by mixing the interface between platelet-rich plasma and 40-45% bovine serum albumin. Thereby the platelets are gently sedimented into a zone with a specific gravity equal to their own, and they are protected by the cushion of albumin from disruptive squashing on the hard surface of the centrifuge tube.
Flat-bottomed, polystyrene tubes of 10 mL capacity with stopper were used for platelet washing by ADGS. Pasteur pipettes were siliconised and used for transferring plasma and wash fluid. Stirring rods were made from Pasteur pipettes by heating the tips, forming a right-angle ben approximately 1 cm long and then siliconised. […]

For series [2] the following is noted: cited from earlier work.
For series [3] the following is noted: at 25° C. (Foye 1989); cited from earlier work.

What is called solubility is the concentration that dissolves in the medium under given conditions. One may read the pKa as the negative logarithm of the acid dissociation constant. On to “O-acetylsalicylic acid [Compound C2SA, reference compound]”, for which, in series [1], the “Platelet response to arachidonic acid after pretreatment (platelet washing study)” value is recorded as “non-reversibly inhibited; also recorded: still refractory to arachidonic acid”. Further, the solubility in series [2] (at 25° C., The Merck Index 1983) is 18.5 mM. Besides, the Maximum solubility in series [2] (water, 25° C., literature value (Merck Index)) is 18.5 mM. Besides, the pKa in series [3] is given as 3.5.
With `CCCCCC(=O)Oc1ccccc1C(=O)O` [Compound C6SA, n-hexanoylsalicylic acid], the “Platelet response to arachidonic acid after pretreatment (platelet washing study)” value in series [1] was “non-reversibly inhibited; also recorded: still refractory to arachidonic acid”.

The record behind these values is patent US6593365B1, “Diflunisal esters and related compounds” (The University of Queensland, priority 1997, dated 2003).
